In assay [1] the test system is Detergent Solubilized Rat Brain Membrane Proteins. Nature of the assay: Specific [^3 H]DuP 996 binding to detergent solubilized rat brain membrane proteins. The conditions noted are these: 10 nM tritiated DuP 996. Here is the method:
[…] The mixture was centrifuged at 47,000×g for 20 minutes. The supernatant containing the solubilized protein was collected. The supernatant from centrifugation of brain membranes without detergent was used as the control.
Fifty μl aliquots of the solubilized membrane protein were incubated with 0.2 ml of 50 mM Tris-HCl, pH 7.4, with 0.1% bovine serum albumin, and 10 nM tritiated DuP 996 in a total volume of 0.325 ml. Nonspecific binding was determined in the presence of 10 μM DuP 996. After 1 hour of incubation at 25° C., 0.5 ml of ice-cold 0.1M sodium phosphate buffer, pH 7.4, with 0.1% bovine gamma globulin was added. The sample was put on ice and then 0.5 ml of 25% (w/v) polyethylene glycol 8000 was added and mixed. The sample was put on ice for 10 to 15 minutes and filtered through Whatman GF/B filters which had been presoaked in 0.2% polyethylenimine. The filtered sample was washed twice with 3 ml each of ice cold 8% polyethylene glycol 8000 in 100 mM Tris-HCl, pH 7.4. Bound radioactivity retained on the filters was counted in a liquid scintillation counter.

The target in assay [2] is DuP 996 binding protein. Description: Radioreceptor screening assay (displacement of tritiated DuP 996). On the set-up: species or system rat. The following applies: inhibition of binding of 10 nM tritiated DuP 996, pH 7.4, 25° C., 60 minutes. How it is done:
Male Sprague-Dawley rats (Charles River Breeding Laboratories) at 200-250 g were euthanatized by decapitation. Rat brain regions were dissected according to Heffner et al., Pharmacol. Biochem. Behav., 13, 453 (1980). Brain membranes were prepared by the method of Tam, Proc. Natl. Acad. Sci. USA, 80, 6703 (1983). The brain tissues were homogenized (20 sec) in 10 vol (wt/vol) of ice-cold 0.32M sucrose with a Brinkman Polytron (setting 8). The homogenate was centrifuged at 920×g for 10 min at 4° C. The supernatant was centrifuged at 47,000×g for 20 min. The resulting membrane pellet was resuspended in 10 vol (original wt/vol) of 50 mM Tris-HCl (pH 7.4) and incubated at 37° C. for 30 min to degrade and dissociate bound endogenous ligands. The membranes were then centrifuged at 47,000×g for 20 min and resuspended in 50 mM Tris-HCl.
Compounds to be screened were incubated with brain membranes. (1-2 mg protein) in 50 mM Tris-HCl buffer, pH 7.4, for 10 minutes in 25° C. Then 10 nM tritiated DuP 996 or its active structural analogs were added and incubated at 25° C. for 60 minutes. The samples were filtered on Whatman GF/B glass filters which had been soaked in 0.2% polyethylenimine and washed 3 times each with 5 ml of ice-cold Tris buffer. Nonspecific binding was determined by performing binding in the presence of 10 μM DuP 996. The control represents specific binding in the absence of compounds to be screened. Screened compounds which inhibited the specific binding of tritiated DuP 996 or analogs to its binding protein should be active in binding to the same protein. This is illustrated further in Example 4, Part B.

In assay [3] the test system is DuP 996 binding protein. Nature of the assay: Trypsin pretreatment, binding of tritiated DuP 996. Set-up: species or system rat. The conditions noted are these: 0.1-100 μg/ml trypsin, 25° C., 10 min. Here is the method:
One ml aliquots of brain membranes (1-2 mg of protein) in 50 mM Tris-HCl buffer, pH 7.4, were incubated with 0.1-100 μg/ml of trypsin (17,000 BAEE units/mg protein) at 25° C. for 10 min. 10 nM of tritiated DuP 996 was added and incubated for 45 min at 25° C. […]. Samples were filtered on Whatman GF/B filters which had been presoaked in 0.2% polyethylenimine under negative pressure and washed 3 times with ice-cold buffer. Nonspecific binding was determined in the presence of 10 μM DuP 996.

For assay [4], the system named is DuP 996 binding protein. Description: Phospholipase C pretreatment, binding of tritiated DuP 996. On the set-up: species or system rat. The following applies: 5-50 μg/ml phospholipase C, 10 min, 37° C. How it is done:
One ml aliquots of brain membranes (1-2 mg of protein) in 50 mM Tris-HCl buffer, pH 7.4, were incubated with 5-50 μg/ml of phospholipase C for 10 min at 37° C. 10 nM of tritiated DuP 996 was added and incubated for 45 min at 25° C. Samples were filtered on Whatman GF/B filters which had been presoaked in 0.2% polyethylenimine under negative pressure and washed 3 times with ice-cold buffer. Nonspecific binding was determined in the presence of 10 μM DuP 996.

In the next assay the test system is ACh release. Description: Neurotransmitter release assay: stimulated ACh release from brain slices. On the set-up: species or system rat. The following applies: concentration to enhance stimulated release of ACh by 100% (2-fold) over control, from dose response curves. How it is done: Male Wistar rats weighing 175-200 g were euthanatized and the brains were dissected out immediately. Slices (0.3 mm thick) from the parietal cortex were prepared manually by using a recessed Lucite® guide. Slices (1.5 mm thick) from the hippocampus and the caudate nucleus were prepared by using a slotted brain holder. All slices were subsequently cut into 0.25×0.25 mm squares with a McIlwain tissue chopper.
Labeling of transmitter stores in slices was prepared by the following methods. For ACh release, slices (approximately 100 mg wet weight) were incubated in 10 ml Krebs-Ringer (KR) medium containing (mM): NaCl(116), KCl(3), CaCl2 (1.3), MgCl2 (1.2), KH2 PO4 (1.2), Na2 SO4 (1.2), NaHCO3 (25) and glucose(11), to which 10 μCi ^3 H-choline (specific activity approx. 80 Ci/mmol: NEN) and 10 nmol unlabeled choline had been added to give a final concentration of 10^-6 M. Incubation was carried out for 30 min at 37° C. under a steady flow of 95% O2 /5% CO2. Under these conditions, part of the radioactive choline taken up is converted into radioactive ACh by cholinergic nerve endings, stored in synaptic vesicles, and released upon depolarization by high-K^+ -containing medium [Molenaar et al., 1973a]. For dopamine (DA), serotonin (5-HT), and norepinephrine (NE) release, slices (approximately 100 mg wet weight) were incubated in KR medium containing 0.01 mM nialamide at 37° C. under a steady flow of 95% O2 /5% CO2. The MAO-inhibitor nialamide was added to the medium in order to inhibit metabolism to the monoamines. Incubation was for 30 min in 10 ml of KR medium to which 10 μCi ^3 H-dopamine, ^3 H-norepinephrine, or ^3 H-5-hydroxytryptamine (specific activity 30, 45, and 78 Ci/mmol, respectively: all from NEN) had been added.
Separate experiments were performed for the release of each neurotransmitter. After labeling of the transmitter stores, the slices were washed three times with non-radioactive KR medium and transferred to a superfusion apparatus to measure the drug effects on transmitter release [Schoemaker et al., Psychopharmacology 74, 137 (1981)]. The superfusion apparatus consisted of 10 thermo-jacketed glass columns of 5 mm diameter which were provided with GF/F glass fiber filters to support the brain slices (approximately 10 mg tissue/column). Superfusion was carried out with KR medium at a rate of 0.3 ml/min. For ACh release, 10^-5 M hemicholinium-3 was added to the medium to prevent the uptake of choline formed during superfusion from phospholipids and released ACh, so that it could not be subsequently converted into newly synthesized ACh, which would be released in preference to the pre-formed, labeled ACh. The medium was delivered by a 25-channel peristaltic pump (Ismatec; Brinkman) and maintained at 37° C. by a thermostated stainless-steel heating coil before entering the superfusion column. Each column was provided with a four-way slider valve (Beckman Instruments) which allowed rapid change of low-to-high-K^+ -KR-medium and with two 10-channel, 3-way valves which were used to change form drug-free to drug-containing low- and high-K^+ -KR media.
After 15 min washout of non-specifically bound radioactivity during superfusion, the collection of fractions of 4 min (1.2 ml) each was started. After 3×4 min, the KR medium was changed to a KR medium with 25 mM KCl (ACh, 5-HT release) or 12.5 mM KCl (DA release) (high K^+ -KR medium; S1). Depolarization-induced stimulation of release by high-K^+ -KR medium was then substituted by drug- or vehicle-containing low- and high-K^+ -KR medium and superfusion continued for 3×4 min with low-K^+ -KR medium, for 1×4 min with high-K^+ -KR medium (S2), and for 2×4 min with low-K^+ -KR medium.
Compounds were added to the medium by 100-fold dilution of appropriate stock solutions (in 0.9% NaCl/H2 O) with either low- or high-K^+ -KR medium.
All superfusion fractions were collected in liquid scintillation counting vials.

In a further assay the test system is Alzheimer's patients. The conditions noted are these: clinical trials with cholinesterase inhibitors, literature; cited from earlier work.

Consider `O=C1N(c2ccccc2)c2ccccc2C1(Cc1ccncc1)Cc1ccncc1` [Compound 7, 3,3-Bis(4-pyridinylmethyl)-1-phenylindolin-2-one], for which the “SPECIFIC BINDING” value was determined as 868 dpm in assay [1] (CHAPS, 20 mM); 348 dpm in assay [1] (NP40); 511 dpm in assay [1] (Octyl glucoside, 0.4%); 0 dpm in assay [1] (Triton X-100, 1%); 134 dpm in assay [1] (Tween 80, 1%). For the same compound, at DuP 996 binding protein [2], the half-maximal inhibitory concentration (IC50) (as a rule, the point on the concentration scale where inhibition reaches its midpoint) came to 0.056 µM. Besides, the “tritiated DuP 996 binding activity after trypsin preincubation” value in the assay on DuP 996 binding protein [3] was “loss of tritiated DuP 996 binding activity”. In the assay with DuP 996 binding protein [4], the “DuP 996 binding activity after preincubation with phospholipase C” value is recorded as “no effect on the DuP 996 binding activity”.
`CN1CCC(CC2(CC3CCN(C)CC3)C(=O)N(c3ccccc3)c3ccccc32)CC1` [Compound 25, 3,3-Bis(1-methyl-4-piperidinylmethyl)-1,3-dihydro-1-phenyl-2H-indol-2-one] showed an IC50 at DuP 996 binding protein [2] of 970 µM. Also, the “ACh Release EC100” value with ACh release is 1,200,000 nM.
The like results for `O=C1C(C(O)(c2ccccn2)c2ccccn2)c2ccccc2N1c1ccccc1` (stereo not drawn) [Compound 26, 3[Bis(2-pyridinyl)-(hydroxy)methyl]-1,3-dihydro-1-phenyl-2H-indol-2-one] were, in that order, 980 µM and 1,000,000 nM.
Take `O=C1N(c2ccccc2)c2ccccc2C1(Cc1cnn(Cc2ccccc2)c1)Cc1cnn(Cc2ccccc2)c1` [Compound 27, 3,3-Bis[1-(phenylmethyl)-1H-pyrazol-4-ylmethyl]-1,3 dihydro-1-phenyl-2H-indol-2-one]: the IC50 at DuP 996 binding protein [2] came to 990 µM. Moreover, the “ACh Release EC100” value in the assay with ACh release is given as 1,300,000 nM.
For `O=C1N(c2ccccc2)c2ccccc2C1(Cc1ccnnc1)Cc1ccnnc1` [Compound 28, 3,3-Bis(4-pyridazinyl-methyl)-1,3-dihydro-1-phenyl-2H-indol-2-one], the IC50 on DuP 996 binding protein [2] amounted to 1000 µM. Moreover, the “ACh Release EC100” value with ACh release was 1,000,000 nM.
The like results for `c1ccc(CC2(Cc3ccccn3)c3ccccc3-c3ccccc32)nc1` [Compound 29, 2-[9-(2-pyridinylmethyl)-9H-fluoren-9-ylmethyl]-pyridine] were, in that order, 1100 µM and 990,000 nM.
On DuP 996 binding protein [2], `Cc1nc(CC2(Cc3csc(C)n3)C(=O)N(c3ccccc3)c3ccccc32)cs1` [Compound 30, 3,3-Bis(2-methyl-4-thiazolylmethyl)-1,3-dihydro-1-phenyl-2H-indol-2-one] displayed a half-maximal inhibitory concentration (IC50) of 1200 µM. For the same compound, the “ACh Release EC100” value in the assay on ACh release was 980,000 nM.
Consider `CNC(=O)Oc1ccc2c(c1)[C@]1(C)CCN(C)[C@@H]1N2C` [physostigmine], for which the “cognitive measures in Alzheimer's patients” value with Alzheimer's patients is listed as “limited improvement in cognitive measures”.

Values taken from US5278045A, “Method and compositions to screen compounds for enhancement of the cholinergic, dopaminergic and serotonergic function” (Du Pont Merck Pharmaceutical Company, priority 1990, dated 1994).
